Read-outs that look alike come from different tables or passages of the source.
What was measured:
[1] = target: T1, IKZF1 (Ikaros) (Homo sapiens, UniProt Q13422); test: Western blot selectivity assay in MM1S cells: IKZF1; type: cell-based; parameters: key: A represents a no degradation observed at 30 μM; B represents trace degradation at 30 μM (below 20%); C represents weak degradation at 30 μM (below 50%); D represents degradation at 30 μM (>90%); E represents degradation at 3 μM (>90%); F represents degradation at 0.3 μM (>90%); conditions: MM1S cells, 0.3, 3 and 30 μM, 6 hours
T1 construct: endogenous in cells; host or cells: MM1S (ATCC CRL-2974)
T1 sequence (Q96SW2 whole entry partner): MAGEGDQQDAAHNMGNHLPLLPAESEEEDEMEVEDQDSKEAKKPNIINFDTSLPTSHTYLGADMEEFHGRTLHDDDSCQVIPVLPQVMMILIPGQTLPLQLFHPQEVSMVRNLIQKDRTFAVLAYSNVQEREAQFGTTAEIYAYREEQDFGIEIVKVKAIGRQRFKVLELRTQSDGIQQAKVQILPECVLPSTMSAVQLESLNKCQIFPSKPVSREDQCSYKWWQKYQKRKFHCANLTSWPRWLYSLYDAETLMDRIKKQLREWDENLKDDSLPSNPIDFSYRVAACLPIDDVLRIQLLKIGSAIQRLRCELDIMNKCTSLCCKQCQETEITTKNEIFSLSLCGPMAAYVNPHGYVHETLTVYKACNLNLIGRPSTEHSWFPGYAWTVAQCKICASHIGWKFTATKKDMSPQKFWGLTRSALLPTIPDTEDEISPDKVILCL
T1 sequence (Q16531 2-1140 partner limits assumed): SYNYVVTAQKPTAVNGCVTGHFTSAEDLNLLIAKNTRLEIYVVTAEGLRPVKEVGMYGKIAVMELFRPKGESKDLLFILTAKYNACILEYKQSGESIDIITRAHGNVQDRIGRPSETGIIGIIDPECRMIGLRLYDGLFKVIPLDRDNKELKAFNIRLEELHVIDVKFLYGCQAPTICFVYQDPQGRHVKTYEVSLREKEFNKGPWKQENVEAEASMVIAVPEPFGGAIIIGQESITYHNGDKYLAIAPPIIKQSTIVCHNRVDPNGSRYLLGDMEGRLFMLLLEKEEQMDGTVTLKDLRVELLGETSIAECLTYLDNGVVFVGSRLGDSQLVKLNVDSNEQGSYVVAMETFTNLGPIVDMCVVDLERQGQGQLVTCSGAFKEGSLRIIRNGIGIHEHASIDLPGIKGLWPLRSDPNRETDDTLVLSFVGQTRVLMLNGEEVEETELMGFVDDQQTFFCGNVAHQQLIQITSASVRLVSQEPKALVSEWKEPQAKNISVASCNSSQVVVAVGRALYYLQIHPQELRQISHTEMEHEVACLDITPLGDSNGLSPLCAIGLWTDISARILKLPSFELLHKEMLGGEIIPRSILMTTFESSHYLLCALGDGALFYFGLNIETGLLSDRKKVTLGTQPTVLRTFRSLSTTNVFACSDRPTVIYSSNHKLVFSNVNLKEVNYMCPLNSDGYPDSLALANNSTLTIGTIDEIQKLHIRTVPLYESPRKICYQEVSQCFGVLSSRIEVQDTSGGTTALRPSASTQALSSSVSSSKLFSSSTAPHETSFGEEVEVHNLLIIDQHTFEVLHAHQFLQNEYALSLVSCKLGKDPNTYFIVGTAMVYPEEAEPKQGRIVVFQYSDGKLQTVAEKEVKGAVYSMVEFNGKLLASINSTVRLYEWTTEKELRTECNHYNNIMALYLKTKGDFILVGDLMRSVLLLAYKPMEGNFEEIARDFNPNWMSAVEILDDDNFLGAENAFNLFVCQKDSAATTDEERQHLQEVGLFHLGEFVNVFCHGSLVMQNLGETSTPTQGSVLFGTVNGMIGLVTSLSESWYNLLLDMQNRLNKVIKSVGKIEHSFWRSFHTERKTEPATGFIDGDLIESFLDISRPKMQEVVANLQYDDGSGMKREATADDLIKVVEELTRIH
T1 sequence (Q13422 whole entry): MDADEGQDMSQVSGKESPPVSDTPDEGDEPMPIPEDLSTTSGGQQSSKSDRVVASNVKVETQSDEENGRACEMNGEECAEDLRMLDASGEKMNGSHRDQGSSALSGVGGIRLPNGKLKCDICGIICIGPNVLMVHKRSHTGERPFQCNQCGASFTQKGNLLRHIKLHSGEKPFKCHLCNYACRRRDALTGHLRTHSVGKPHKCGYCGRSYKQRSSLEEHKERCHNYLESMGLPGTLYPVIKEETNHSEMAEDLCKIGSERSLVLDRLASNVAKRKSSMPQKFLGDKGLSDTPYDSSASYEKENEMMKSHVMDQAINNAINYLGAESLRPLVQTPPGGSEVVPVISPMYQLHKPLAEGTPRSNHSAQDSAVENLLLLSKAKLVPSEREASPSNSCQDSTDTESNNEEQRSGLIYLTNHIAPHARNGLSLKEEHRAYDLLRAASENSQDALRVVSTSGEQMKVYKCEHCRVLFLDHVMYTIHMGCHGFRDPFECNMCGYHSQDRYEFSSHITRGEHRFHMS
Procedure: (§1) MM1S cells were purchased from ATCC (cat. Number CRL-2974), sub-cultured in 90% RPMI 1640 with 10% FBS, supplemented with 1×P/S and incubated at 37° C., 5% CO2. Compounds were stored as 10 mM DMSO stock. For the assay, MM1S cells (3 million cells/well) were plated in 6-well plates and incubated over night. Cells were treated with respective compounds using a serial dilution: 0.3 μM, 3 μM and 30 μM as well as a vehicle only (DMSO) control for 6 hours. Media with suspension cells was subsequently transferred to 15 mL conical tubes, wells rinsed twice with ice-cold PBS and merged with cell suspension in respective 15 mL conical tube. Cells were spinned down, supernatant aspirated, pellets resuspended in ice-cold PBS and transferred to microtubes. Cells were spinned down, supernatant aspirated and pellets resuspended in 120 μL RIPA lysis buffer supplemented with protease and phosphatase inhibitors. Cell lysates were incubated on ice for 20 minutes followed by centrifugation at >20,000×g for 5 min. Supernatants were transferred to fresh microtubes and stored at −80° C. Total protein concentration was determined using a BCA assay with a BSA standard curve and concentration of all samples was adjusted to 1 mg/mL. 25 μL 4×LDS sample buffer supplemented with 100 mM DTT was added to 75 μL sample. Samples were centrifuged (8,000×g, 1 min) and incubated at 95° C. for 5 min followed by another centrifugation step (8,000×g, 1 min). 20 μL of each sample was loaded on a 4-12% gel alongside a protein molecular weight marker. Gels were run in the presence of MOPS buffer at 80 Volts for 30 min, followed by 120 Volts for 1.5 h and proteins subsequently transferred onto nitrocellulose membranes at 20 Volts for 7 min using an iBlot2 Gel Transfer Device. Membranes were then cut horizontally into two pieces, covering 80-50 kDa and 50-25 kDa. Blocking the membranes was performed by gently shaking in 5% (w/v) skim milk in TSB-T for 1 hr at room temperature. All primary antibodies were used at a 1/1000 in 5% (w/v) BSA dissolved in TBST and incubated with membranes over night at 4° C. Anti-IKZF1 (Ikaros; D6N9Y; 14859S), anti-IKZF3 (Aiolos; D1C1E; 15103S) antibodies were purchased from Cell Signalling Technology, anti-ZFP91 antibody from Bethyl laboratories, anti-GSPT1 from Sigma Aldrich (HPA052488) and anti CK1alpha from AbCam (ab206652). After three washes with 1×TBST for 5 min, HRP-coupled secondary antibodies diluted in 5% (w/v) BSA/TBST (Goat Anti-Rb IgG, dil. 1/10,000; Goat Anti-Mouse IgG, dil. 1/5000) were added for 1 hr at room temperature. After three washes with 1×TBST (5 minutes each), membranes were incubated with ECL reagent for 1 min at room temperature. Chemiluminescence signals were then detected using a LAS-4000 system with default settings and signals quantified using Image Studio Lite software (version 5.2). Membrane parts previously incubated with antibody against CK1alpha were stripped off antibodies by incubating with stripping buffer for 30 minutes followed by three washed with TBST (5 min each), blocking with 5% (w/v) skim milk for 1 hr, and incubation with primary antibody against GAPDH overnight at 4° C. Subsequent washes, incubation with secondary antibody and signal acquisition were performed as described above.

[2] = target: T2, GSPT1 (Homo sapiens, UniProt P15170+Q96SW2); test: Western blot selectivity assay in MM1S cells: GSPT1; type: cell-based; parameters: endogenous in cells; host or cells: MM1S (ATCC CRL-2974); conditions: MM1S cells, 0.3, 3 and 30 μM, 6 hours
T2 sequence (P15170 whole entry): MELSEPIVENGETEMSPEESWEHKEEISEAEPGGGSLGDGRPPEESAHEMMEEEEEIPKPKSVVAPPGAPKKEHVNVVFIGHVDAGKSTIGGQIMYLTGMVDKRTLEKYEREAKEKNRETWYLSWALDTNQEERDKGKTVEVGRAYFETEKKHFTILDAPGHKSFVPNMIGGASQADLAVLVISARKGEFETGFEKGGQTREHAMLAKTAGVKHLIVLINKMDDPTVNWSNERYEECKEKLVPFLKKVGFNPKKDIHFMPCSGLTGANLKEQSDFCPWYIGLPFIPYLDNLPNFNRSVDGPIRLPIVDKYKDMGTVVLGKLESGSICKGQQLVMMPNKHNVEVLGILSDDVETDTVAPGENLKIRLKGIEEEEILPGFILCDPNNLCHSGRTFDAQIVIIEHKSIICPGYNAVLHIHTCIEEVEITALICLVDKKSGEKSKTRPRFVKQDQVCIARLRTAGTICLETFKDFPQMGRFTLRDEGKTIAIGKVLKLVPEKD
T2 sequence (Q96SW2 whole entry): as the sequence (Q96SW2 whole entry partner) above
T2 sequence (Q16531 2-1140 partner limits assumed): as the sequence (Q16531 2-1140 partner limits assumed) above
Procedure: as §1

[3] = target: T3, Full length wild-type cereblon CRBN (Homo sapiens, UniProt Q96SW2); test: Fluorescence polarization (FP) assay, cereblon binding
T3 construct: Full length wild-type cereblon CRBN (80.0 nM, 10 μL) was incubated in assay buffer
T3 sequence (Q96SW2 whole entry): as the sequence (Q96SW2 whole entry partner) above
Method in brief: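 Full-length wild-type human CRBN (80.0 nM) was preincubated with compound for 30 min at room temperature in 20 mM HEPES pH 8.0, 150 NaCl, 0.5 mM TCEP and 0.05% Tween 20. A Cy5-type thalidomide-linked fluorescent probe was then added. The FP signal was normalized to the DMSO control to derive IC50.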

[4] = target: T4, IKZF3 (Aiolos) (Homo sapiens, UniProt Q9UKT9); test: Western blot selectivity assay in MM1S cells: IKZF3; type: cell-based; parameters: key: A represents a no degradation observed at 30 μM; B represents trace degradation at 30 μM (below 20%); C represents weak degradation at 30 μM (below 50%); D represents degradation at 30 μM (>90%); E represents degradation at 3 μM (>90%); F represents degradation at 0.3 μM (>90%); conditions: MM1S cells, 0.3, 3 and 30 μM, 6 hours
T4 construct: endogenous in cells; host or cells: MM1S (ATCC CRL-2974)
T4 sequence (Q96SW2 whole entry partner): as above
T4 sequence (Q16531 2-1140 partner limits assumed): as the sequence (Q16531 2-1140 partner limits assumed) above
T4 sequence (Q9UKT9 whole entry): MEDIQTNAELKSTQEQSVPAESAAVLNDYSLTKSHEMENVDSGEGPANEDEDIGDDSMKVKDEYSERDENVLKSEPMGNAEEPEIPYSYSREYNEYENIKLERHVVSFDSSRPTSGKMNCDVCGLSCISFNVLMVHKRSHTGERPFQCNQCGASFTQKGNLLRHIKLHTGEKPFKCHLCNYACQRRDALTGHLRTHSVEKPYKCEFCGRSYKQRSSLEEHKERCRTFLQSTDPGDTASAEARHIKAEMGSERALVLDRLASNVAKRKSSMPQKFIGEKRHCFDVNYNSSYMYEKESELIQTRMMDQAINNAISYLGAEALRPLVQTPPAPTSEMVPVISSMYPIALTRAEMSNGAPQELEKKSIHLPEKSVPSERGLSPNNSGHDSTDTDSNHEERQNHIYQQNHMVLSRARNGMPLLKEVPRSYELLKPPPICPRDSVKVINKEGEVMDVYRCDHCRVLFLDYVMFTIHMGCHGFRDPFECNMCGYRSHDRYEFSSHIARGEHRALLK
Procedure: as §1, with “After three washes with 1×TBST (5 minutes each), membranes were incubated with ECL reagent for 1 min at room temperature.” left out, “Membrane parts previously incubated with antibody against CK1alpha were stripped off antibodies by incubating with stripping buffer for 30 minutes followed by three washed with TBST (5 min each), blocking with 5% (w/v) skim milk for 1 hr, and incubation with primary antibody against GAPDH overnight at 4° C. Subsequent washes, incubation with secondary antibody and signal acquisition were performed as described above.” left out

[5] = target: T2, GSPT1; test: Immunofluorescence assay for GSPT1 degradation in CAL-51 cells (Example 4); type: cell-based; parameters: host or cells: CAL-51
Procedure: The representative compounds were tested in an immunofluorescence assay for their activity to bind to degrade GSPT1. […] Compounds were stored at 10 mM DMSO stocks. […] Cells were subsequently rinsed with PBS and fixed in 10% Formalin solution (50 μl, Sigma HT5011)) for 20 mins at room temperature. […] Following three further PBS washes, […] blocking buffer (1% BSA, Sigma A4503, in PBS) was added for 45 min for signal-to-noise reduction.
Primary antibody (human GSPT1, Sigma HPA052488) was diluted in blocking buffer (dil.1/300, 35 μl/well) and incubated with the cells overnight at 4° C. […] After three final PBS washes, samples were conserved in 100 μl PBS in the dark, until measurement. Image acquisition was performed on the Operetta High-Content Imager (Perkin-Elmer). […] For the determination of GSPT1 DC50 values, a custom algorithm implemented in the PerkinElmer image analysis software Harmony-Acapella® was developed. After user-defined setting of adjustment parameters, the analysis was run identically without human intervention for all image fields. DAPI staining of the nuclei was used to determine the location of cells using standard nuclei detection modules. Segmentation artifacts were removed by threshold-based filters for area, roundness and intensity. The outline of the cells was determined analogously from the sum of the normalized, smoothed DAPI and Actin channel, starting from each nucleus.
GSPT1 degradation (DC50) was calculated after normalization to controls and data import in CDD vault Database, using non-linear regression.

[6] = target: T2, GSPT1; test: Immunofluorescence assay for GSPT1 degradation in CAL-51 cells (Example 10); type: cell-based; parameters: host or cells: CAL-51
Procedure: The representative compounds were tested in an immunofluorescence assay for their activity to degrade GSPT1. […] Compounds were stored at 10 mM DMSO stocks. […] Cells were subsequently rinsed with PBS and fixed in 10% Formalin solution (50 μl, Sigma HT5011)) for 20 mins at room temperature. […] Following three further PBS washes, 50 μL blocking buffer (1% BSA, Sigma A4503, in PBS) was added for 45 min for signal-to noise reduction. Primary antibody (human GSPT1, Sigma HPA052488) was diluted in blocking buffer (dil.1/300, 35 μL/well) and incubated with the cells overnight at 4° C. […] After three final PBS washes, samples were conserved in 100 μL PBS in the dark, until measurement. Image acquisition was performed on the Operetta High-Content Imager (Perkin-Elmer). […] For the determination of GSPT1 DC50 values, a custom algorithm implemented in the PerkinElmer image analysis software Harmony-Acapella® was developed. After user-defined setting of adjustment parameters, the analysis was run identically without human intervention for all image fields.
DAPI staining of the nuclei was used to determine the location of cells using standard nuclei detection modules. Segmentation artifacts were removed by threshold-based filters for area, roundness and intensity. The outline of the cells was determined analogously from the sum of the normalized, smoothed DAPI and Actin channel, starting from each nucleus. […] GSPT1 degradation (DC50) was calculated after normalization to controls and data import in CDD vault Database, using non-linear regression.

[7] = target: CRBN-DDB1 (Homo sapiens, UniProt Q96SW2); test: HTRF binding of compounds to CRBN
Sequence of CRBN-DDB1 (Q96SW2 whole entry): as the sequence (Q96SW2 whole entry partner) above
Sequence of CRBN-DDB1 (Q16531 whole entry partner): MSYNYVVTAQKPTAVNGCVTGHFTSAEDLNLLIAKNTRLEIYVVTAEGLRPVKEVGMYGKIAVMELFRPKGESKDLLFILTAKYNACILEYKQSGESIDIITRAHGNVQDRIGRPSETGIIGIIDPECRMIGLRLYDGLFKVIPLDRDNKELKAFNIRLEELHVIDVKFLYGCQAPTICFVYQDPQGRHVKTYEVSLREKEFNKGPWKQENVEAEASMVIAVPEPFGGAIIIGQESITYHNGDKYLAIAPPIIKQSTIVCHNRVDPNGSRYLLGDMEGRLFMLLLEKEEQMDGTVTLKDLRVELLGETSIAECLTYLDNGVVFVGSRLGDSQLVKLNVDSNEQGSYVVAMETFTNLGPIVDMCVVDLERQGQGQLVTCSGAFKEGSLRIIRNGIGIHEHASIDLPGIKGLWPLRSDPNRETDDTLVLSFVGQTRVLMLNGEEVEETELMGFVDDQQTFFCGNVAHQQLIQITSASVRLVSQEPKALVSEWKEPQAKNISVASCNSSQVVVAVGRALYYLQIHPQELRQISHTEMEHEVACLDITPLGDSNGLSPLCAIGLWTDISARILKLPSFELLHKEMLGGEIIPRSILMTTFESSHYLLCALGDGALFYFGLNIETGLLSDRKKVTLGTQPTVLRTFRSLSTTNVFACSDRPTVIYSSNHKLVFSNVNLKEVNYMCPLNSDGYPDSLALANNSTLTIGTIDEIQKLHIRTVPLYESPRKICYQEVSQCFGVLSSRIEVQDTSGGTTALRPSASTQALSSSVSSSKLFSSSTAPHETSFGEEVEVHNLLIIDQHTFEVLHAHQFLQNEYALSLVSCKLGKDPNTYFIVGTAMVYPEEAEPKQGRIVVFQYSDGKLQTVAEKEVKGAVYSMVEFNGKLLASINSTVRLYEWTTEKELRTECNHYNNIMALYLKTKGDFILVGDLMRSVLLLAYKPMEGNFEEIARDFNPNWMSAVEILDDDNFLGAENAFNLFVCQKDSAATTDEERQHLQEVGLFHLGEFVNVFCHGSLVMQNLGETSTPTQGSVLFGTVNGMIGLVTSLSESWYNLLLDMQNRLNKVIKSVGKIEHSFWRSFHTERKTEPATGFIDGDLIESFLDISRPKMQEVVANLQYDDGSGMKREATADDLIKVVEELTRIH
Method in brief: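 CRBN-DDB1 binding measured by HTRF displacement of a Cy5-labelled thalidomide-type probe; 10-point 1:3 compound series, 30 min at ambient temperature. IC50 from curve fitting; Ki from geometric-mean IC50 via Cheng-Prusoff.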

[8] = bounds stated in the text lists b2059-b2061, read-out: IC50 value
[9] = cereblon binding, class code, read-out: rFP IC50
[10] = compounds with code A, read-out: DC50 value
[11] = CAL-51 cells, 6 hours, read-out: Code (activity for GSPT1 degradation, DC50)
[12] = 6 h, read-out: IF Class (GSPT1 degradation, DC50)
[13] = read-out: HTRF Class (Cereblon binding, HTRF IC50)

IKZF1 degradation [1] | IC50 [3, 8] | IC50 [3, 9] | Structure (SMILES) | GSPT1 degradation [2] | also measured
A | – | – | CC(C)(C)c1ccc(NC(=O)OCc2ccc3c(c2)C(=O)N(C2CCC(=O)NC2=O)C3)cn1 (centres unmarked) [Compound 43] | F (F represents degradation at 0.3 μM (>90%)) | –
A | < 1700 nM | 1100 to 1700 nM | CCc1ncc(NC(=O)OCc2ccc3c(c2)C(=O)N(C2CCC(=O)NC2=O)C3)cc1C (centres unmarked) [Compound 49] | F (F represents degradation at 0.3 μM (>90%)) | IKZF3 degradation [4]: A
– | – | – | Cc1c(Cl)cc(NC(=O)OCc2ccc3c(c2)C(=O)N(C2CCC(=O)NC2=O)C3)cc1CC1COCCN1C (centres unmarked) [Compound 150, (2-(2,6-dioxopiperidin-3-yl)-3-oxoisoindolin-5-yl) methyl(3-chloro-4-methyl-5-((4-methylmorpholin-3-yl)methyl)phenyl)carbamate] | – | IC50 ([3]; IC50 value, bounds stated in the text lists b2059-b2061): < 1700 nM; IC50 ([3]; rFP IC50 [nM], cereblon binding, class code): 1100 to 1700 nM; DC50 [5, 10]: ≤ 30 nM; DC50 ([5]; read-out: Code (activity for GSPT1 degradation, DC50), CAL-51 cells, 6 hours): < 30 nM
A | – | – | O=C1CCC(N2Cc3ccc(COC(=O)Nc4ccc(-c5ccccc5)nc4)cc3C2=O)C(=O)N1 (centres unmarked) [Compound 42] | F (F represents degradation at 0.3 μM (>90%)) | IKZF3 degradation [4]: A
– | – | – | O=C1CCC(N2Cc3ccc(COC(=O)Nc4cc(Cl)cc(OC(F)(F)F)c4)cc3C2=O)C(=O)N1 (centres unmarked) [Compound 11] | – | DC50 [5, 10]: ≤ 30 nM
A | < 1700 nM | 1100 to 1700 nM | O=C1CCC(N2Cc3ccc(COC(=O)Nc4cccc(OC(F)(F)F)c4)cc3C2=O)C(=O)N1 (centres unmarked) [Compound 3] | F (F represents degradation at 0.3 μM (>90%)) | IKZF3 degradation [4]: A
– | < 500 nM | < 500 nM | CCc1cc(NC(=O)OCc2ccc3c(c2)C(=O)N(C2CCC(=O)NC2=O)C3)sn1 (centres unmarked) [Compound 151] | – | DC50 [5, 11]: 30 to 300 nM
A | < 1700 nM | 500 to 1100 nM | O=C1CCC(N2Cc3ccc(COC(=O)Nc4ccc(N5CCCCC5)nc4)cc3C2=O)C(=O)N1 (centres unmarked) [Compound 15] | F (F represents degradation at 0.3 μM (>90%)) | –
– | < 1700 nM | 1100 to 1700 nM | CC(F)(F)c1ccc(NC(=O)OCc2ccc3c(c2)C(=O)N(C2CCC(=O)NC2=O)C3)cc1 (centres unmarked) [Compound 99] | – | DC50 [5, 11]: 30 to 300 nM
– | < 500 nM | < 500 nM | O=C1CCC(N2Cc3ccc(COC(=O)Nc4ccc(C5(F)CC5)cc4)cc3C2=O)C(=O)N1 (centres unmarked) [Compound 115, (2-(2,6-dioxopiperidin-3-yl)-3-oxoisoindolin-5-yl)methyl(4-(1-fluorocyclopropyl)phenyl) carbamate] | – | DC50 [5, 11]: 30 to 300 nM
– | – | – | Cc1c(Cl)ccc(NC(=O)OCc2ccc3c(c2)C(=O)N(C2CCC(=O)NC2=O)C3)c1F (centres unmarked) [Compound 180] | – | DC50 ([6]; read-out: IF Class (GSPT1 degradation, DC50), 6 h): 30 to 300 nM; IC50 [7]: 100 to 1000 nM
– | – | – | CC(C)c1ccc(F)c(NC(=O)OCc2ccc3c(c2)C(=O)N(C2CCC(=O)NC2=O)C3)c1 (centres unmarked) [Compound 205, (2-(2,6-dioxopiperidin-3-yl)-3-oxoisoindolin-5-yl)methyl (2-fluoro-5-isopropylphenyl)carbamate] | – | DC50 [6, 12]: 30 to 300 nM; IC50 [7, 13]: 100 to 1000 nM
– | – | – | O=C1CCC(N2Cc3ccc(COC(=O)N[C@H]4C[C@@H](c5ccccc5)C4)cc3C2=O)C(=O)N1 (some centres unmarked) [Compound 158, (2-(2,6-dioxopiperidin-3-yl)-3-oxoisoindolin-5-yl)methyl ((1s,3s)-3-phenylcyclobutyl)carbamate] | – | DC50 [6, 12]: > 300 nM; IC50 [7, 13]: < 100 nM
A | < 1700 nM | 1100 to 1700 nM | Cc1c(Cl)cc(NC(=O)OCc2ccc3c(c2)C(=O)N(C2CCC(=O)NC2=O)C3)cc1OCCN1CCOCC1 (centres unmarked) [Compound 48] | F (F represents degradation at 0.3 μM (>90%)) | –
– | < 1100 nM | 500 to 1100 nM | O=C1CCC(N2Cc3ccc(COC(=O)Nc4cccc(OC5CC5(F)F)c4)cc3C2=O)C(=O)N1 (centres unmarked) [Compound 140] | – | DC50 [5, 11]: < 30 nM; DC50 [5, 10]: ≤ 30 nM
